# Laboratory results taken from ChEMBL document CHEMBL2417389, “Synthesis and optimization of novel (3S,5R)-5-(2,2-dimethyl-5-oxo-4-phenylpiperazin-1-yl)piperidine-3-carboxamides as orally active renin inhibitors” (Bioorg Med Chem, 2013).
# Numbering of substitutions follows the chain as printed.
# Assays:
# [1] = target: T1, Renin (Macaca fascicularis) (UniProt Q6DLS0); assay: Ratio of compound IC50 to Aliskiren hemifumarate IC50 for cynomolgus monkey plasma renin
# T1 sequence (whole entry): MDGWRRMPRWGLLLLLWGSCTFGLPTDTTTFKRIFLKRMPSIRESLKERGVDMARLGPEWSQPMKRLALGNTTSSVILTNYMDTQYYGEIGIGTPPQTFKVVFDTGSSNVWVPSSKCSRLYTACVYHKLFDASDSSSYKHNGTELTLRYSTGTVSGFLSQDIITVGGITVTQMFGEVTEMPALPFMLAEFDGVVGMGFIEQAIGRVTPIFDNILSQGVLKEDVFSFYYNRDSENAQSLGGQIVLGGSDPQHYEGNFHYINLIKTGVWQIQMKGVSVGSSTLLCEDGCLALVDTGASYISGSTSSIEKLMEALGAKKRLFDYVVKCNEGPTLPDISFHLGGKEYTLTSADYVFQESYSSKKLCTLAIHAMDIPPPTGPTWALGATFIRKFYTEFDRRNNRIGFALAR
# Renin [2] = target: T2, Renin (Homo sapiens, UniProt P00797); assay: Inhibition of trypsin-activated human recombinant renin using (Arg-Glu(EDANS)-Ile-His-Pro-Phe-His-Leu-Val-Ile-His-Thr-Lys(DABCYL)-Arg) as substrate incubated for 10 mins prior to substrate addition measured after 90 mins by fluorescence assay
# T2 sequence (P00797 whole entry): T1 sequence (whole entry) with A68T, L214I, A235S
# Renin [3] = target: T3, Renin (Macaca fascicularis, UniProt Q6DLS0); assay: Inhibition of cynomolgus monkey plasma renin assessed as angiotensin 1 level after 60 mins by competitive radioimmunoassay
# T3 sequence (Q6DLS0 whole entry): T1 sequence (whole entry)
# hERG (KCNH2) = hERG (KCNH2) (Homo sapiens, UniProt Q12809); assay: Inhibition of human ERG channel at 30 uM by patch clamp technique
# Sequence of hERG (KCNH2) (Q12809 whole entry): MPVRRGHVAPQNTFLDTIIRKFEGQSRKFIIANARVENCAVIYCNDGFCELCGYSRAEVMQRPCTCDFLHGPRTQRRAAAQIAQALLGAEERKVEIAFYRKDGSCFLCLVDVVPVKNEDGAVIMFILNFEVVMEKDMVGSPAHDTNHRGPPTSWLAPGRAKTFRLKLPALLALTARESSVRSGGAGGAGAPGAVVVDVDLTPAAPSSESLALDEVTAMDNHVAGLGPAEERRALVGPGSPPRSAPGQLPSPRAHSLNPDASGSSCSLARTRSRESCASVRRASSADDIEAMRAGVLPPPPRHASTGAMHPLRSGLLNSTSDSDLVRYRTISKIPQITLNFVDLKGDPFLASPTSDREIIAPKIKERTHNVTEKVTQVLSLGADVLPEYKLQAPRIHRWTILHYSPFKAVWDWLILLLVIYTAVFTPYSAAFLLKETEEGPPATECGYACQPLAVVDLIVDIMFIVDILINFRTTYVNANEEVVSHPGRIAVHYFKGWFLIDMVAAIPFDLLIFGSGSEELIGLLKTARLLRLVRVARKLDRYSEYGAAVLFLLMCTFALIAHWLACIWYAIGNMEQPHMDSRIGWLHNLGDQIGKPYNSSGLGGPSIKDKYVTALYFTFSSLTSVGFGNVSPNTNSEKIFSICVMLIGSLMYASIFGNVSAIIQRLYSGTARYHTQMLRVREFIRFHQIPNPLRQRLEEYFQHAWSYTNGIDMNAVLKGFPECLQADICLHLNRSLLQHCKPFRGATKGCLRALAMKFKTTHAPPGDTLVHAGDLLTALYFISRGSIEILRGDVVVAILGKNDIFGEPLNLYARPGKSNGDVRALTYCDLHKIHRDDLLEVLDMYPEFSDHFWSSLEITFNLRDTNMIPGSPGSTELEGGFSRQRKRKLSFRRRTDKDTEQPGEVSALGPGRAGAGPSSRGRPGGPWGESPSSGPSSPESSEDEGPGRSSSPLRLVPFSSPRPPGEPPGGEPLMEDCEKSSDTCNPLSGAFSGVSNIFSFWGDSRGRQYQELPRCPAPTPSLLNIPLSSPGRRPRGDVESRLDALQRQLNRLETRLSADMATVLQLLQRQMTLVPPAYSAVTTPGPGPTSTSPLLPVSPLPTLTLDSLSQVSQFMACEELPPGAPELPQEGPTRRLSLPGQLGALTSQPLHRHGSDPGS
# [4] = AUC (0 to 24 hrs) in cynomolgus monkey at 10 mg/kg, po; type: ADME, organism-based, Macaca fascicularis; design: time < 24 hr, dose 10 mg/kg, route oral; details: plasma
# CYP2D6 = CYP2D6 (Homo sapiens, UniProt P10635); assay: Inhibition of CYP2D6 (unknown origin) at 10 uM; type: ADME
# Sequence of CYP2D6 (P10635 whole entry): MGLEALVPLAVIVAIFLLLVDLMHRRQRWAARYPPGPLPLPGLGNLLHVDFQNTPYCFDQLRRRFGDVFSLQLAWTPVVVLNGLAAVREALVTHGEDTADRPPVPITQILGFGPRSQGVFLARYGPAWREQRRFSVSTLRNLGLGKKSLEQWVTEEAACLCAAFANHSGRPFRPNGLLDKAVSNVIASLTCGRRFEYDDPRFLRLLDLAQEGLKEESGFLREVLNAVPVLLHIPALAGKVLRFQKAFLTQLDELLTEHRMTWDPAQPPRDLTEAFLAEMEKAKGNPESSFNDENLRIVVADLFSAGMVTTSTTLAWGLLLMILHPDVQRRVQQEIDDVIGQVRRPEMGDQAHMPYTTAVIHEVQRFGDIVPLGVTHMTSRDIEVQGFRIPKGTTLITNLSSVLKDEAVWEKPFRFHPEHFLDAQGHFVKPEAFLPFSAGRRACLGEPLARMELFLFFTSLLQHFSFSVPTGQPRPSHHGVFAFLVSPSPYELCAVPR
# CYP3A4 = CYP3A4 (Homo sapiens, UniProt P08684); assay: Inhibition of CYP3A4 (unknown origin) at 10 uM; type: ADME
# Sequence of CYP3A4 (P08684 whole entry): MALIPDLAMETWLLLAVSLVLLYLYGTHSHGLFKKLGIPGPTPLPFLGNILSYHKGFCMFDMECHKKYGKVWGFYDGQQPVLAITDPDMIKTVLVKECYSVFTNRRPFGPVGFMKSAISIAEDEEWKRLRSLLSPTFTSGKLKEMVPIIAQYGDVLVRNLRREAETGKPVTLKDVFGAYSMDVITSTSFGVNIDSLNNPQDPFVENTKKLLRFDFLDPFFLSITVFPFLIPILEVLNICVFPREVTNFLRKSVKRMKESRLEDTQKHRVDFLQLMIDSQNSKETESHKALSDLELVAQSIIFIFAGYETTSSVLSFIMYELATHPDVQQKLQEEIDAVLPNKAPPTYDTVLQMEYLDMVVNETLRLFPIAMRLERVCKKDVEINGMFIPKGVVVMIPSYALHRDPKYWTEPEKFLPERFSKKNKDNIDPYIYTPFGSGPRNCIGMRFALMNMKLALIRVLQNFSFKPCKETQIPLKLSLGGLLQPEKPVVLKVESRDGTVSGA
# Cynomolgus monkey = assay: Antihypertensive activity in cynomolgus monkey assessed as reduction in mean arterial pressure at 10 mg/kg, po measured for 24 hrs post dose; type: functional, organism-based; design: dose 10 mg/kg; details: Macaca fascicularis, Artery
# Rattus norvegicus = assay: Antihypertensive activity in double transgenic rat assessed as reduction in mean arterial pressure at 30 mg/kg, po measured for 48 hrs post dose; type: functional, organism-based; design: dose 30 mg/kg; details: Artery
# [5] = AUC (0 to 24 hrs) in Sprague-Dawley rat at 10 mg/kg, po; type: ADME, organism-based; design: time < 24 hr, dose 10 mg/kg, route oral; details: plasma
# [6] = AUC (0 to 24 hrs) in cynomolgus monkey at 3 mg/kg, po; type: ADME, organism-based, Macaca fascicularis; design: time < 24 hr, dose 3 mg/kg, route oral; details: plasma
SMILES,Ratio IC50 [1],IC50 (Renin [2]),IC50 (Renin [3]),further results
CC[C@@H](NC(=O)[C@@H]1CNC[C@H](N2CC(=O)N(c3ccccc3Cl)CC2(C)C)C1)c1ccccc1F,2.3,3.3 nM,11 nM,–
CC(C)C[C@@H](NC(=O)[C@@H]1CNC[C@H](N2CC(=O)N(c3ccccc3Cl)CC2(C)C)C1)c1ccc(F)cn1.O=C(O)/C=C/C(=O)O,2.1,1 nM,9.7 nM,inhibition at 30 µM (hERG (KCNH2)): 27%; AUC(0-t) at 24 h [4]: 2580 ng·h/mL; inhibition at 10 µM (CYP2D6): 8.3%; inhibition at 10 µM (CYP3A4): 22%; AUC (Cynomolgus monkey): -194 mmHg.hr; AUC (Rattus norvegicus): -535 mmHg.hr
CC[C@@H](NC(=O)[C@@H]1CNC[C@H](N2CC(=O)N(c3ccccc3Cl)CC2(C)C)C1)c1ccccc1.O=C(O)/C=C/C(=O)O,1.8,–,–,AUC(0-t) at 24 h [5]: 1500 ng·h/mL; AUC(0-t) at 24 h [6]: 730 ng·h/mL
CCOC[C@@H](CC(C)C)NC(=O)[C@@H]1CNC[C@H](N2CC(=O)N(c3ccccc3Cl)CC2(C)C)C1.O=C(O)/C=C/C(=O)O,0.5,–,–,AUC(0-t) at 24 h [6]: 60 ng·h/mL
CC[C@@H](NC(=O)[C@@H]1CNC[C@H](N2CC(=O)N(c3ccccc3Cl)CC2(C)C)C1)c1cccc(F)c1,2.8,1.8 nM,14 nM,–
CC[C@@H](NC(=O)[C@@H]1CNC[C@H](N2CC(=O)N(c3ccccc3Cl)CC2(C)C)C1)c1cccc(Cl)c1,5,2.3 nM,25 nM,–

# More lines, main results first:
Ratio IC50 [1],IC50 (Renin [2]),IC50 (Renin [3]),SMILES,further results
1,–,–,CC(C)C[C@@H](NC(=O)[C@@H]1CNC[C@H](N2CC(=O)N(c3ccccc3Cl)CC2(C)C)C1)c1ccccc1,–
0.9,–,–,CC(C)C[C@@H](NC(=O)[C@@H]1CNC[C@H](N2CC(=O)N(c3ccccc3Cl)CC2(C)C)C1)c1cccnc1,–
0.8,1.7 nM,6.9 nM,CC(C)C[C@@H](NC(=O)[C@@H]1CNC[C@H](N2CC(=O)N(c3ccccc3Cl)CC2(C)C)C1)c1cncc(F)c1,–
